Reference: ChEMBL document CHEMBL1148618, “Novel benzodiazepine photoaffinity probe stereoselectively labels a site deep within the membrane-spanning domain of the cholecystokinin receptor” (J Med Chem, 2006)

Legend:
[1] = biological target: T1, Cholecystokinin receptor type A (Rattus norvegicus, UniProt P30551); assay: Displacement of [125I]D-Tyr-Gly-[(Nle28,31)CCK-26-33] from rat CCK receptor expressed in CHO cells; format: cell-based
T1 sequence (P30551 whole entry): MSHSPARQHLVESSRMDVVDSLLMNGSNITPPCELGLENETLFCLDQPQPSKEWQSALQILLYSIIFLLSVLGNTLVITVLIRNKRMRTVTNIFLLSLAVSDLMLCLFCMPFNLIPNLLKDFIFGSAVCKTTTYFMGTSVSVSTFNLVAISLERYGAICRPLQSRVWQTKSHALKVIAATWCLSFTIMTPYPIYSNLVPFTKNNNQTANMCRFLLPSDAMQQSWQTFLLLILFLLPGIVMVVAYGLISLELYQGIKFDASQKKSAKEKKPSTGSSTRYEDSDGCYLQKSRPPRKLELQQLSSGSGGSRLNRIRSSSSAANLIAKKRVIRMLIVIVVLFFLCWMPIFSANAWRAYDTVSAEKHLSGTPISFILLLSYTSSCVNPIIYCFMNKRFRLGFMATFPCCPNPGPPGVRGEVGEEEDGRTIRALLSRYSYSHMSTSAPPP

[2] = biological target: T1, Cholecystokinin receptor type A; assay: Intrinsic agonistic activity at CCK receptor in SD rat at 1 uM expressed in pancreatic acinar cell line; format: functional
[3] = biological target: T2, Cholecystokinin receptor type A (Rattus norvegicus) (UniProt P30551); assay: Activity at CCK receptor in SD rat at 1 uM expressed in pancreatic acinar cell line; format: functional; conditions: filed as antagonist
T2 sequence (whole entry): T1 sequence (P30551 whole entry)

| EC50 [2] [nM] | Activity [3] | Structure (SMILES) | IC50 [1] [nM] |
| --- | --- | --- | --- |
|  |  | COc1ccc(N(C)C(=O)CN2C(=O)[C@H](NC(=O)Nc3cccc(C(=O)c4ccccc4)c3)C(=O)N(c3ccccc3)c3ccccc32)cc1 | 490 |
| 150 |  | COc1ccc(N(C(=O)CN2C(=O)[C@H](NC(=O)Nc3cccc(C(=O)c4ccccc4)c3)C(=O)N(c3ccccc3)c3ccccc32)C(C)C)cc1 | 61 |
|  |  | COc1ccc(N(C)C(=O)CN2C(=O)[C@@H](NC(=O)Nc3cccc(C(=O)c4ccccc4)c3)C(=O)N(c3ccccc3)c3ccccc32)cc1 | 470 |
|  | Antagonist | COc1ccc(N(C(=O)CN2C(=O)[C@@H](NC(=O)Nc3cccc(C(=O)c4ccccc4)c3)C(=O)N(c3ccccc3)c3ccccc32)C(C)C)cc1 | 710 |
